Source: PMC6337391 (Molecules, 2019)

What was measured:
[1] = Reducing activity with the stable radical DPPH
Protocol: The chalcones were studied for the antioxidant activity (reducing activity RA%) by the use of the stable free radical 2,2-diphenyl-1-picrylhydrazyl radical (DPPH) at concentrations 0.05 mM after 20 and 60 min (Table 2). In this procedure, the dominant chemical reaction involved is the reduction of the DPPH radical by single electron transfer from the antioxidant. […] For the sake of comparison, we measured the RA% values for the intermediate double ethers d which were included in the Table 2.
To a solution of DPPH (final concentration 0.05 mM) in absolute ethanol an equal volume of the compounds solution in DMSO (stock solution 10 mM) dissolved in ethanol was added. Absolute ethanol was used as a control. The concentrations of the solutions of the compounds were 0.05 and 0.1 mM. The absorbance was recorded at 517 nm at room temperature after 20 and 60 min [29] (Table 2).

[2] = ABTS•+ decolorization assay
Protocol: The decolorization assay is used to evaluate the antioxidant activity. The ABTS^•+ cationic radical is derived from the direct oxidation of ABTS by potassium persulfate. No involvement of an intermediary radical is observed. The addition of electron-donating antioxidants reduce ABTS^•+.
Stock solutions of the tested compounds in DMSO (10 mM) were diluted. […] aliquots of each sample were added into the ABTS·^+ solution and the absorbance was recorded at room temperature. Trolox was used as a standard.

[3] = Inhibition of linoleic acid lipid peroxidation (AAPH)
From the text: The water soluble 2,2′-azobis(2-amidinopropane) hydrochloride (AAPH) generates in vitro free radicals through spontaneous thermal decomposition. […] Overall, chalcones a, b, and c present anti-lipid peroxidation activity. […] The inhibiting activities for the rest b chalcones ranged from 15–44%. The intermediate ethers are moderate inhibitors. […] This might be correlated with the presence of the double C=C–COCH3 group. […] Both have a long ether chain in their structure.
In an aqueous solution spectrophotometrically at 234 nm the production of conjugated diene hydro peroxide by oxidation of sodium linoleate was monitored and recorded according to our previous published experimental conditions, using 10 µL of the 16 mM sodium linoleate solution added to the UV cuvette containing 930 μL of 0.05 M phosphate buffer, pH 7.4 pre-thermostated at 37 °C, under air by the addition of 50 μL of 40 mM AAPH solution, which was used as a free radical initiator. Ten microliters (10 μL) of the appropriate solutions of the tested compounds were added in the mixture, whereas same level of DMSO was used as a blank for the measurement of lipid oxidation. The rate of oxidation at 37 °C was monitored by recording the increase in absorption at 234 nm caused by conjugated diene hydro peroxides.

soybean lipoxygenase = target: T1, soybean lipoxygenase (Glycine max, UniProt P08170); assay: biochemical; assay type: biochemical; conditions: soybean LOX; for IC50: read-out: LOX IC50
T1 sequence (P08170 1-839): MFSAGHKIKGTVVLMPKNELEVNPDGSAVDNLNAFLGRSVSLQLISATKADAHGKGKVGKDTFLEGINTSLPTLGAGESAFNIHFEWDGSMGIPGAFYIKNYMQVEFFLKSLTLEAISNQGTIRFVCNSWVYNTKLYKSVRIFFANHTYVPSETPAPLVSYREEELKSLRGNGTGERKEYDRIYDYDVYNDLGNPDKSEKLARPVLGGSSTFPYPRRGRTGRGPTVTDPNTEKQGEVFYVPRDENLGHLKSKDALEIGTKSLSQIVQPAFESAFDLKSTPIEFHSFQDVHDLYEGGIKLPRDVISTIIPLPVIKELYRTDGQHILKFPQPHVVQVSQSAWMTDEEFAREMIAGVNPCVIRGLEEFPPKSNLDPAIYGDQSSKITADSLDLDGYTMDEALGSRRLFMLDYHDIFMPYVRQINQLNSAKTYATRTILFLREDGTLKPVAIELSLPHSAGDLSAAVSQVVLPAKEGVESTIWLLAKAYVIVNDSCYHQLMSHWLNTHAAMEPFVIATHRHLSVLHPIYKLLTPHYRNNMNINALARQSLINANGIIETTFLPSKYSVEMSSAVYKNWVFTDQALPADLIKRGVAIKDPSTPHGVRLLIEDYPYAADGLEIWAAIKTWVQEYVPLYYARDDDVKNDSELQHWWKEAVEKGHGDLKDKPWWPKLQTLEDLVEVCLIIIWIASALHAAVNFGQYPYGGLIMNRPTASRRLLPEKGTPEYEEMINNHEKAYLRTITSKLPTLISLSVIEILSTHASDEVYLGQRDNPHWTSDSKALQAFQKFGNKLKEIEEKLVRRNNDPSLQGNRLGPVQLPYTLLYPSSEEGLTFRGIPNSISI
From the text: In our experiments we used soybean lipoxygenase. Designing agents to modulate activities of the variety of so closely homologous enzymes, such as different LOXs, require an intimate knowledge of their 3D structures, as well as information about metabolism of the potential xenobiotics. […] Due to lack of sufficiently-purified human enzymes most of the research has been done on soybean LOX [52, 53]. Although this enzyme is not identical to the mammalian one, it seems that there is a sufficient qualitative correlation between values for enzyme inhibition with the two enzymes.
In vitro study was evaluated as reported previously. The tested compounds as stock solutions were dissolved in DMSO. Ten microliters (10 μL) were incubated at room temperature with sodium linoleate ([…]) and 0.2 mL of enzyme solution (1/9 × 10^−4 w/v in saline) in buffer pH 9 (tris) at room temperature (final volume 1 mL). […] Several concentrations were used for the determination of IC50 values.

[4] = Lipophilicity as RM values by RP-TLC; assay type: physicochemical; set-up: key: RM = log[(1/Rf) − 1]; conditions: methanol/water 70/30, SD < 10%
From the text: It is well-documented and discussed in the literature that lipophilicity is a very significant physicochemical property which may critically affect distribution, bioavailability, metabolic activity and elimination, all the useful characteristics for the kinetics of biologically active compounds. Thus, we attempted to determine experimentally the lipophilicity of the synthesized compounds from the RPTLC method as RM values. The method is considered to be a reliable, fast and convenient method for expressing lipophilicity. Moreover, many calculated methods were used in order to predict the logP value.
Reversed phase TLC (RP-TLC) was performed on silica gel plates impregnated with 5% (v/v) liquid paraffin in light petroleum ether. The mobile phase was a methanol/water mixture (70/30, v/v). The plates were developed in closed chromatography tanks saturated with the mobile phase at 24 °C. Spots were detected under UV light. Five individual measurements of Rf values were recorded and used for the determination of RM using the equation RM = log [(1/Rf) − 1]. (Table 3).

[5] = system: L929 mouse fibroblasts cells; assay: Cytotoxicity, propidium iodide fluorescence method; assay type: cell-based; conditions: 24-h incubation
Protocol: The cytotoxicity of the synthesized derivatives against L929 mouse fibroblasts cells was determined using the propidium iodide (PI) fluorescence method in the presence of different concentrations (1–100 μM) of these compounds. The results are presented in Table 4 in the form of the % cell survival values as PI% for the examined compounds. […] Chalcones c7, c8, c11, and c12 follow.
L929 mouse fibroblasts cells were cultured in EMEM supplemented with 10% horse serum, 2 mM L-glutamine, 1 mM sodium pyruvate, 0.1 mM nonessential amino acids, 1.5 g/L sodium bicarbonate, and 100 μg/mL penicillin–streptomycin at 37 °C in a humidified atmosphere with 5% CO2. L929 cells were plated into 24-well plates at a density […] and allowed to attach and grow for 24 h. The supernatant in each well then replaced with medium containing various concentrations (1, 10, 20, 50 and 100 μM) of compounds a5–12, c5–12, di, and dii–dvi, which presented the more interesting results in the in vitro experiments. After 24-h incubation, the supernatant was removed and the cells were washed with PBS. The cells were detached with 0.25% trypsin, transferred to FACS tubes, and then centrifuged (1600 rpm for 5 min) and the pellet washed with PBS. After washing, the cells in the pellet were incubated with 5 μL propidium iodide (PI) solution (1 mg/mL) for 1 min. The PI fluorescence (cell death) was determined with flow cytometry, FACS Calibur, Coulter Epics XL-MCL (Beckman, Inc., Mount Holly, NJ, USA). The analysis of flow cytometry data was performed with the WinMDI analysis program (Table 4).

| SMILES | RA% 100 μM 20 min [1] | RA% 100 μM 60 min [1] | ABTS•+ Inhb. % @ 100 μM [2] | AAPH% @ 100 μM (anti-lipid peroxidation) [3] | % LOX Inhb. @ 100 μM (soybean lipoxygenase) | RM [4] | 1 μM Average (% pi) ± σ [5] | 20 μM Average (% pi) ± σ [5] | 50 μM Average (% pi) ± σ [5] | 100 μM Average (% pi) ± σ [5] | 10 μM Average (% pi) ± σ ([5]; 10 μM) | IC50 (soybean lipoxygenase) |
| --- | --- | --- | --- | --- | --- | --- | --- | --- | --- | --- | --- | --- |
| O=C(/C=C/c1cccs1)c1ccc(O)cc1 [a5, (E)-1-(4-hydroxyphenyl)-3-(thiophen-2-yl) prop-2-en-1-one] | 17% | 3% | No | 23% | 9% | −0.62 | 11.36 ± 0.62% | 28.32 ± 2.91% | 36.15 ± 2.33% | 36.15 ± 2.33% |  |  |
| O=C(/C=C/C=C/c1ccccc1)c1ccc(O)cc1 [a7, (2E,4E)-1-(4-hydroxyphenyl)-5-phenylpenta-2,4-dien-1-one] | 19% | 6% | 12% | 31% | 4% | −0.64 | 6.85 ± 3.12% | 9.24 ± 6.49% | 60.95 ± 0.01% | 60.95 ± 0.01% | 9.27 ± 1.9% |  |
| CN(C)c1ccc(/C=C/C=C/C(=O)c2ccccc2O)cc1 [b3, (2E,4E)-5-(4-(dimethylamino)phenyl)-1-(2-hydroxyphenyl)penta-2,4-dien-1-one] | 72% | 15% | 96% | 100% | 100% | −0.66 |  |  |  |  |  | 57 µM |
| O=C(/C=C/C=C/c1ccccc1)c1ccccc1O [b7, (2E,4E)-1-(2-hydroxyphenyl)-5-phenylpenta-2,4-dien-1-one] | 13% | 0% | 5% | 29% | 29% | −0.85 |  |  |  |  |  |  |
| CC(/C=C/C(=O)c1ccccc1O)=C\c1ccccc1 [b8, (2E,4E)-1-(2-hydroxyphenyl)-4-methyl-5-phenylpenta-2,4-dien-1-one] | 17% | 3% | 12% | 25% | 25% | −0.79 |  |  |  |  |  |  |
| O=C(/C=C/C(Br)=C\c1ccccc1)c1ccccc1O [b9, (2E,4E)-4-bromo-1-(2-hydroxyphenyl)-5-phenylpenta-2,4-dien-1-one] | 20% | 8% | No | 17% | 16% | −0.37 |  |  |  |  |  |  |
| O=C(/C=C/C=C/c1ccc([N+](=O)[O-])cc1)c1ccccc1O [b11, (2E,4E)-1-(2-hydroxyphenyl)-5-(4-nitrophenyl) penta-2,4-dien-1-one] | 4% | 2% | No | 31% | 31% | −0.91 |  |  |  |  |  |  |
| O=C(/C=C/c1ccccc1)c1ccccc1O [b13, (E)-1-(2-hydroxyphenyl)-3-phenylprop-2-en-1-one] | 10% | 0% | No | 15% | 14% | 0.43 |  |  |  |  |  |  |
| O=C(/C=C/c1ccccc1)c1ccc(OCCCOc2ccc(C(=O)/C=C/c3ccccc3)cc2)cc1 [c13, (2E,2′E)-1,1′-((propane-1,3-diylbis(oxy))bis(4,1-phenylene))bis(3-phenylprop-2-en-1-one)] | No | no | No | 71% | 76% | 0.34 |  |  |  |  |  | 65 µM |
| CN(C)c1ccc(/C=C/C=C/C(=O)c2ccc(OCCCCOc3ccc(C(=O)/C=C/C=C/c4ccc(N(C)C)cc4)cc3)cc2)cc1 [eiii, (2E,2′E,4E,4′E)-1,1′-((butane-1,4-diylbis(oxy))bis(4,1-phenylene))bis(5-(4-(dimethylamino)phenyl)penta-2,4-dien-1-one)] | No | no | No | 47% | 27% | −0.07 |  |  |  |  |  |  |
